From patent US20240148819A1, “COMPOUNDS FOR USE IN THE TREATMENT OF SINUSITIS, PNEUMONIA OR OTITIS” (PHARMA HOLDINGS AS, priority 2021, published 2024) come the findings set out here.

SMILES strings stand for the structures. Converted amounts (≈) assume the structure as drawn. Like-named read-outs stand apart in the source and are kept apart here.

The subject of data set [1] is SARS-CoV-2 isolate England/02/2020. The format is cell-based.
For data set [2], the system named is Vero cells. Nature of the data set: Parallel test without virus for residual cytotoxicity (Example 8). As to conditions: 1% LTX-12 (w/v) or 0.2% Triton in PBS, contact time 1 h, after filtration, no virus.
Data set [3] deals with Streptococcus pyogenes. The following applies: Streptococcus pyogenes - macrolide (MLS) resistant clinical isolate. As to the method:
(§1) Bacterial and fungal isolates used in this study were from various sources worldwide stored at GR Micro Ltd. and maintained, with minimal sub-culture, deep frozen at −70° C. as a dense suspension in a high protein matrix of undiluted horse serum.
(§2) Minimum inhibitory concentration (MIC) of LTX-109 was determined using the following microbroth dilution methods for antimicrobial susceptibility testing published by the Clinical and Laboratory Standards Institute (CLSI, formerly NCCLS): • M7-A6 Vol. 23 No. 2 Jan. 2003 Methods for Dilution Antimicrobial Susceptibility Tests for Bacteria that Grow Aerobically; Approved Standard-Sixth Edition. National Committee for Clinical Laboratory Standards. • M100-S15 Vol. 25 No 1. January 2005 Performance Standards for Antimicrobial Susceptibility Testing; Fifteenth Informational Supplement. Clinical and Laboratory Standards Institute • M11-A6 Vol. 24 No. 2 Methods for Antimicrobial Susceptibility Testing of Anaerobic Bacteria; Approved Standard-Sixth Edition. National Committee for Clinical Laboratory Standards. • M27-A2 Vol. 22 No. 15 Reference Method for Broth Dilution Antifungal Susceptibility Testing of Yeasts; Approved Standard-Second Edition. National Committee for Clinical Laboratory Standards. • M38-A Vol. 22 No. 16 Reference Method for Broth Dilution Antifungal Susceptibility Testing of Filamentous Fungi; Approved Standard. National Committee for Clinical Laboratory Standards.
(§3) MIC estimations were performed using wet plates, containing the LTX-109, prepared at GR Micro Ltd.
(§4) Cation-adjusted Mueller-Hinton broth (Oxoid Ltd., Basingstoke, UK and Trek Diagnostic Systems Ltd., East Grinstead, UK) (supplemented with 5% laked horse blood for Streptococcus spp.) was used for aerobic bacteria, with an initial inoculum of approximately 10^5 colony-forming units (CFU)/mL.
(§5) Following normal practice all the plates containing Mueller-Hinton broth were prepared in advance, frozen at −70° C. on the day of preparation and defrosted on the day of use. Fungal, Haemophilus and anaerobic MIC determinations were all performed in plates prepared on the same day.

The subject of data set [4] is Streptococcus pneumoniae. The protocol: as §1, §2, §3, §4, §5
In data set [5] the test system is Moraxella catarrhalis. The protocol:
as §1, §2, §3, §4, §5

The subject of data set [6] is Rhinovirus (HRV-A60), Strain: 2268-CV37. Nature of the data set: TCID50 assay after 1 h incubation of virus with LTX-7 (Example 10). The format is cell-based. As to conditions: 1% LTX-7 or 0.25% SDS; for % Reduction: Rhinovirus infectivity; for % Reduction / Log decrease: compared to PBS control; for Log decrease: Rhinovirus.
Data set [7] deals with MDCK-II cells. The following applies: 1% LTX-7 (w/v) or 0.2% Triton X-100 in PBS, contact time 1 h, after filtration, no virus.
Protocol: (§7) A parallel test where the same procedure was carried out in the absence of virus was included to determine any residual cytotoxic effect of LTX-7 on the assay cells.
In data set [8] the test system is HeLaM cells. As to conditions: 1% LTX-7 (w/v) or 0.25% SDS in PBS, contact time 1 h, after filtration, no virus.
Protocol: as §7
In data set [9] the test system is Influenza A strain A/WSN/33 (H1N1). The format is cell-based, Influenza A virus.
The test system of data set [10] is Candida krusei. The following applies: Candida krusei - ATCC6258 - reference strain. As to the method: as §1, §2, §3
(§6) Yeast and filamentous fungal MIC were performed in MOPS buffered RPMI 1640 medium (MOPS buffer obtained from Sigma Aldrich Ltd., RPMI 1640 obtained from Invitrogen Ltd, Paisley, Scotland). The yeast inocula were in the range 7.5×10^2-4×10^3 CFU/mL and the filamentous fungi approximately 8×10^3-1×10^5 CFU/mL.
as §5

Data set [11] relates to Candida albicans. As to the method:
as §1, §2, §3, §6, §5

The test system of data set [12] is Candida parapsilosis. The following applies: Candida parapsilosis - ATCC90018 - reference strain. As to the method:
as §1, §2, §3, §6, §5

Data set [13] concerns Candida tropicalis. As to conditions: Candida tropicalis - ATCC750 - reference strain. As to the method:
as §1, §2, §3, §6, §5

Data set [14] deals with Aspergillus niger. As to conditions: Aspergillus niger - G. R. Micro collection. The protocol: as §1, §2, §3, §6, §5
For data set [15], the system named is Mycoplasma pneumoniae. As to conditions: both of the library strains of Mycoplasma pneumoniae. The protocol:
Two library strains of Mycoplasma pneumoniae were used. These strains were stored at GR Micro Ltd. and maintained, with minimal sub-culture, deep frozen at −70° C. as a dense suspension in a high protein matrix of undiluted horse serum.
MIC determination was carried out using a broth microdilution method in Mycoplasma Broth Base (Oxoid Ltd, Hampshire, UK), prepared according to the manufacturer's instructions.

The test system of data set [16] is HeLa cells. Nature of the data set: Parallel test without virus for residual cytotoxicity (Example 7). As to conditions: 3% LTX-109 (w/v) or 0.25% SDS, after dilution (50 μl in 5 ml), no virus. In kind it is cell-based, human.
Protocol: (§8) A parallel test where the same procedure was carried out in the absence of virus was included to determine any residual cytotoxic effect of the formulation on the assay cells.
The test system of data set [17] is HeLa cells. As to conditions: 1% LTX-109 (w/v) or 0.25% SDS, after filtration, no virus, dilution showing cytotoxicity.
Protocol: as §8
Data set [18] has as its system Rhinovirus 60, 2268-CV37. Nature of the data set: TCID50 assay after 1 h incubation of virus with 1% LTX-109 (Example 6). In kind it is cell-based.
The subject of data set [19] is Rhinovirus 60, 2268-CV37. Briefly: TCID50 assay after 1 h incubation of virus with 3% LTX-109, stopped by dilution (Example 7). The format is cell-based.

Consider `CC(C)(C)c1cc(C(C)(C)C)c2[nH]c(C(C)(C)C)c(CC(NC(=O)C(N)CCCCN)C(=O)NC(CCCCN)C(=O)NCCc3ccccc3)c2c1` (stereo not drawn) [LTX-12, Lys-Tbt-Lys-NH—CH2—CH2-Ph], for which the “% Reduction” value in data set [1] is listed as 99.977%. Further, the Cytotoxicity entry in data set [2] is “No cytotoxicity”.

With `N=C(N)NCCCC(N)C(=O)NC(Cc1ccc(-c2ccc3ccccc3c2)cc1)C(=O)NC(CCCNC(=N)N)C(=O)NCCc1ccccc1` (stereo not drawn) [LTX-7, Arg-Phe(4-(2-Naphthyl))-Arg-NH—CH2—CH2-Ph], the MIC in data set [3] was 32 µg/mL (≈ 45.3 µM); in data set [4] (Streptococcus pneumoniae - penicillin intermediate clinical isolate) it was 32 µg/mL (≈ 45.3 µM); in data set [4] (Streptococcus pneumoniae - penicillin resistant clinical isolate) it was 32 µg/mL (≈ 45.3 µM); in data set [5] (Moraxella catarrhalis - reduced fluoroquinolone susceptibility clinical isolate), 8 µg/mL (≈ 11.3 µM); in data set [5] (Moraxella catarrhalis - β-lactamase positive clinical isolate), 4 µg/mL (≈ 5.66 µM); in data set [10], 4 µg/mL (≈ 5.66 µM). For the same compound, the minimum inhibitory concentration (MIC) in data set [11] (Candida albicans - ATCC24433 - reference strain) is 2 µg/mL (≈ 2.83 µM); in data set [11] (Candida albicans - ATCC90028 - reference strain), 2 µg/mL (≈ 2.83 µM); in [12], 4 µg/mL (≈ 5.66 µM); in data set [13], 2 µg/mL (≈ 2.83 µM); in data set [14], 4 µg/mL (≈ 5.66 µM); in data set [15], 32 µg/mL (≈ 45.3 µM). Further, the “% Reduction” value is reported as 95.791% in [6] and 99.9988% in data set [9]. Also, the Log decrease in data set [6] is listed as 1.33 log. Further, the Cytotoxicity result in [7] was “neat”; in data set [8], “Neat”.

`CCCCCCCCCCCCOS(=O)(=O)[O-].[Na+]` [SDS, Sodium dodecyl sulphate]: the “% Reduction” value in data set [6] stood at 99.983%. Also, the Log decrease in [6] worked out at 3.67 log; in [18] (Rhinovirus, 1% LTX-109 or 0.25% SDS, 1 hour, compared to PBS control), 3.6 log; in data set [19] (Rhinovirus, 3% LTX-109 or 0.25% SDS, 1 hour, compared to PBS control) it was 3.0 log. This compound also had a Rounded % in [6] (rounded % reduction of Rhinovirus infectivity) of 99.9%. The Cytotoxicity result in data set [16], in data set [17] and in data set [8] was “Neat” each time. Besides, the “TCID50/ml ± SEM” value in data set [18] (Rhinovirus titre recovered after 1 hour with 1% LTX-109 (w/v) or 0.25% SDS, filtration, HeLa cells, 7 days) was determined as 1.00E+02 TCID50/ml; in data set [19] (Rhinovirus titre recovered after 1 hour with 3% LTX-109 (w/v) or 0.25% SDS, dilution, no filter, HeLa cells, 7 days) it was 1.58E+01 TCID50/ml. Further, the Percentage is recorded as 99.98% in [18] (decrease in Rhinovirus infectivity, 1% LTX-109 or 0.25% SDS, 1 hour, compared to PBS control) and 99.91% in data set [19] (decrease in Rhinovirus infectivity, 3% LTX-109 or 0.25% SDS, 1 hour, compared to PBS control). Moreover, the Log in data set [18] (log of Rhinovirus titre after 1 hour with 1% LTX-109 or 0.25% SDS) is 2.0; in [19] (log of Rhinovirus titre after 1 hour with 3% LTX-109 or 0.25% SDS), 1.2.
